# Source: US20050142581A1, “Microrna as ligands and target molecules” (priority 2003, published 2005)
# Oligonucleotides are written 5' to 3', each unit as a sugar letter and its base; * is a phosphorothioate linkage, no mark a phosphodiester; rarer units and linkages stand in square brackets, end groups in braces. Plain capitals give the bases only. e = 2'-O-(2-methoxyethyl) (MOE); [5mC] = 5-methylcytosine; d = 2'-deoxy (DNA)
# Tested on: human CD40 mRNA
# Experiment: Inhibition of CD40 mRNA levels by oligonucleotides (real-time RT-PCR)
# Assay type: cell-based
# Design: concentration or dose not given beside the values
# Conditions: 2'-MOE gapmers, 18 nucleotides, phosphorothioate throughout; averaged from three experiments
# Protocol: When cells reach about 80% confluency, they are treated with oligonucleotide. For cells grown in 96-well plates, wells are washed once with 200 μl Opti-MEM-1 reduced-serum medium (Life Technologies) and then treated with 130 μl of Opti-MEM-1 containing 3.75 μg/ml LIPOFECTIN (Life Technologies) and the desired oligonucleotide at a final concentration of 150 nM. After 4 hours of treatment, the medium was replaced with fresh medium. Cells were harvested 16 hours after oligonucleotide treatment.
# Poly(A)+ mRNA was isolated according to Miura et al. (Clin. Chem., 1996, 42, 1758). Briefly, for cells grown on 96-well plates, growth medium was removed from the cells and each well was washed with 200 ul cold PBS. 60 ul lysis buffer (10 mM Tris-HCl, pH 7.6, 1 mM EDTA, 0.5 M NaCl, 0.5% NP-40, 20 mM vanadyl-ribonucleoside complex) was added to each well, the plate was gently agitated and then incubated at room temperature for five minutes. 55 ul of lysate was transferred to Oligo d(T) coated 96 well plates (AGCT Inc., Irvine, Calif.). Plates were incubated for 60 minutes at room temperature, washed 3 times with 200 ul of wash buffer (10 mM Tris-HCl pH 7.6, 1 mM EDTA, 0.3 M NaCl). After the final wash, the plate was blotted on paper towels to remove excess wash buffer and then air-dried for 5 minutes. 60 ul of elution buffer (5 mM Tris-HCl pH 7.6), preheated to 70° C. was added to each well, the plate was incubated on a 90° hot plate for 5 minutes, and the eluate then transferred to a fresh 96 well plate. Cells grown on 100 mm or other standard plates may be treated similarly, using appropriate volumes of all solutions.
# Quantitation of CD40 mRNA levels was determined by real-time PCR (RT-PCR) using the ABI PRISM 7700 Sequence Detection System (PE-Applied Biosystems, Foster City, Calif.) according to manufacturer's instructions. This is a closed-tube, non-gel-based, fluorescence detection system which allows high-throughput quantitation of polymerase chain reaction (PCR) products in real-time.
# As opposed to standard PCR, in which amplification products are quantitated after the PCR is completed, products in RT-PCR are quantitated as they accumulate. This is accomplished by including in the PCR reaction an oligonucleotide probe that anneals specifically between the forward and reverse PCR primers, and contains two fluorescent dyes. A reporter dye (e.g., JOE or FAM, PE-Applied Biosystems, Foster City, Calif.) is attached to the 5′ end of the probe and a quencher dye (e.g., TAMRA, PE-Applied Biosystems, Foster City, Calif.) is attached to the 3′ end of the probe. When the probe and dyes are intact, reporter dye emission is quenched by the proximity of the 3′ quencher dye. During amplification, annealing of the probe to the target sequence creates a substrate that can be cleaved by the 5′-exonuclease activity of Taq polymerase.
# With each cycle, additional reporter dye molecules are cleaved from their respective probes, and the fluorescence intensity is monitored at regular (six-second) intervals by laser optics built into the ABI PRISM 7700 Sequence Detection System. In each assay, a series of parallel reactions containing serial dilutions of mRNA from untreated control samples generates a standard curve that is used to quantitate the percent inhibition after antisense oligonucleotide treatment of test samples.
# RT-PCR reagents were obtained from PE-Applied Biosystems, Foster City, Calif. RT-PCR reactions were carried out by adding 25 ul PCR cocktail (1× Taqman buffer A, 5.5 mM MgCl2, 300 uM each of dATP, dCTP and dGTP, 600 uM of dUTP, 100 nM each of forward primer, reverse primer, and probe, 20 U RNAse inhibitor, 1.25 units AmpliTaq Gold, and 12.5 U MuLV reverse transcriptase) to 96 well plates containing 25 ul poly(A) mRNA solution. […]
row,Substance,% Inhibition (Inhibition of CD40 mRNA Levels by Chimeric Phosphorothioate Oligonucleotides) [%]
1,19250 (antisense eT*eG*e[5mC]*eA*dG*dG*dA*dC*dA*dC*dA*dG*dC*dT*e[5mC]*eT*e[5mC]*eA) [compound 19250],52.05
2,19233 (antisense eA*eT*eT*e[5mC]*dC*dG*dT*dT*dT*dC*dA*dG*dT*dG*eA*eA*e[5mC]*eT) [compound 19233],56.03
3,19254 (antisense eG*eA*eA*eA*dC*dC*dC*dC*dT*dG*dT*dA*dG*dC*eA*eA*eT*e[5mC]) [compound 19254],0.00
4,19219 (DNA eG*eA*eT*eG*dG*dA*dC*dA*dG*dC*dG*dG*dT*dC*eA*eG*e[5mC]*eA; antisense) [compound 19219],65.14
5,19272 (e[5mC]*eT*eG*eG*dG*dG*dA*dC*dC*dA*dC*dA*dG*dA*e[5mC]*eA*eA*e[5mC]; antisense) [compound 19272],9.04
6,19253 (antisense eA*eA*eT*e[5mC]*dT*dG*dC*dT*dT*dG*dA*dC*dC*dC*e[5mC]*eA*eA*eA) [compound 19253],0.00
7,19220 (DNA eT*e[5mC]*eT*eG*dG*dA*dT*dG*dG*dA*dC*dA*dG*dC*eG*eG*eT*e[5mC]; antisense) [compound 19220],78.71
8,19260 (antisense e[5mC]*eA*eT*eT*dG*dG*dA*dG*dA*dA*dG*dA*dA*dG*e[5mC]*e[5mC]*eG*eA) [compound 19260],41.31
9,19292 (eA*eA*e[5mC]*eT*dG*dC*dC*dT*dG*dT*dT*dT*dG*dC*e[5mC]*e[5mC]*eA*e[5mC]; antisense) [compound 19292],63.34
10,19264 (eG*eT*e[5mC]*e[5mC]*dA*dA*dG*dG*dG*dT*dG*dA*dC*dA*eT*eT*eT*eT; antisense) [compound 19264],70.99
11,19242 (antisense e[5mC]*eT*eG*eA*dG*dG*dT*dG*dC*dC*dC*dT*dT*dC*eT*eG*e[5mC]*eT) [compound 19242],69.84
12,19293 (e[5mC]*eT*eT*e[5mC]*dT*dG*dC*dC*dT*dG*dC*dA*dC*dC*e[5mC]*e[5mC]*eT*eG; antisense) [compound 19293],0.00
13,19273 (eT*e[5mC]*eA*eG*dC*dC*dG*dA*dT*dC*dC*dT*dG*dG*eG*eG*eA*e[5mC]; antisense) [compound 19273],0.00
14,19236 (antisense e[5mC]*eT*e[5mC]*eT*dG*dT*dT*dC*dC*dA*dG*dG*dT*dG*eT*e[5mC]*eT*eA) [compound 19236],62.19
15,19286 (eG*eT*eA*eA*dA*dG*dT*dC*dT*dC*dC*dT*dG*dC*eA*e[5mC]*eT*eG; antisense) [compound 19286],30.62
16,19290 (e[5mC]*eT*eG*eT*dC*dT*dC*dT*dC*dC*dT*dG*dC*dA*e[5mC]*eT*eG*eA; antisense) [compound 19290],25.68

# Same assay, conditions: oligodeoxynucleotides with phosphorothioate backbones throughout; averages from three experiments
row,Substance,% INHIB. (Inhibition of CD40 mRNA Levels by Phosphorothioate Oligodeoxynucleotides) [%]
1,18704 (DNA dA*dA*dC*dT*dG*dC*dC*dT*dG*dT*dT*dT*dG*dC*dC*dC*dA*dC; antisense) [compound 18704],33.89
2,18706 (DNA dA*dC*dT*dG*dA*dC*dT*dG*dG*dG*dC*dA*dT*dA*dG*dC*dT*dC; antisense) [compound 18706],0.00
3,18647 (DNA dT*dT*dC*dA*dC*dC*dG*dC*dA*dA*dG*dG*dA*dA*dG*dG*dC*dA; antisense) [compound 18647],0.00
4,18694 (DNA dG*dA*dT*dC*dG*dT*dC*dG*dG*dG*dA*dA*dA*dA*dT*dT*dG*dA; antisense) [compound 18694],0.00
5,18689 (DNA dA*dC*dC*dA*dG*dC*dA*dC*dC*dA*dA*dG*dA*dG*dG*dA*dT*dG; antisense) [compound 18689],0.00
6,18625 (DNA dA*dG*dG*dT*dG*dA*dG*dA*dC*dC*dA*dG*dG*dC*dG*dG*dC*dA; antisense) [compound 18625],21.89
7,18688 (DNA dG*dA*dG*dG*dA*dT*dG*dG*dC*dA*dA*dA*dC*dA*dG*dG*dA*dT; antisense) [compound 18688],0.00
8,18660 (DNA dT*dA*dC*dA*dG*dT*dG*dC*dC*dA*dG*dC*dC*dT*dT*dC*dT*dT; antisense) [compound 18660],7.80
9,18656 (DNA dT*dG*dG*dT*dG*dT*dC*dT*dG*dT*dT*dT*dC*dT*dG*dA*dG*dG; antisense) [compound 18656],0.00
10,18683 (DNA dC*dC*dA*dC*dA*dG*dA*dC*dA*dA*dC*dA*dT*dC*dA*dG*dT*dC; antisense) [compound 18683],0.00
11,18659 (DNA dG*dT*dG*dC*dC*dA*dG*dC*dC*dT*dT*dC*dT*dT*dC*dA*dC*dA; antisense) [compound 18659],5.67
12,18679 (DNA dC*dA*dG*dG*dT*dC*dT*dT*dT*dG*dG*dT*dC*dT*dC*dA*dC*dA; antisense) [compound 18679],6.98
13,18682 (DNA dG*dT*dC*dT*dT*dG*dT*dT*dT*dG*dT*dG*dC*dC*dT*dG*dC*dC; antisense) [compound 18682],0.00
14,18674 (DNA dG*dC*dA*dG*dA*dT*dG*dA*dC*dA*dC*dA*dT*dT*dG*dG*dA*dG; antisense) [compound 18674],0.00
15,18648 (DNA dC*dT*dC*dT*dG*dT*dT*dC*dC*dA*dG*dG*dT*dG*dT*dC*dT*dA; antisense) [compound 18648],0.00
16,18629 (DNA dG*dG*dT*dC*dA*dG*dC*dA*dA*dG*dC*dA*dG*dC*dC*dC*dC*dA; antisense) [compound 18629],29.96
17,18678 (DNA dT*dT*dG*dG*dT*dC*dT*dC*dA*dC*dA*dG*dC*dT*dT*dG*dT*dC; antisense) [compound 18678],0.00
